In PubChem BioAssay (NCI) one finds TGI and GI50 data, which are given here for 21 compounds.

Among the test systems are MOLT-4 leukemia; SNB-75 CNS; K-562 leukemia; OVCAR-5 ovarian; SK-OV-3 ovarian; NCI-H522 lung; LOX IMVI melanoma; COLO 205 colon; MDA-MB-435; MDA-N.
Holding throughout (experiment): DTP human tumour cell line panel, 48 h

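Cells were grown in 96-well plates and exposed to each compound for 48 hours at five concentrations; endpoints were interpolated linearly between bracketing concentrations, or set to the highest concentration if not reached. Abbreviation: GI50, concentration required for 50% inhibition of growth. At the TGI there is no net growth.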 A value given as a limit tells only on which side of the number the result lay.

Consider `Cc1c[n+]2c3ccccc3c3ccccc3c2s1`, for which the TGI in the experiment with MOLT-4 leukemia is 13.4 µM; with SNB-75 CNS, 12.1 µM; in the experiment with K-562 leukemia it was 44.5 µM; with OVCAR-5 ovarian it was 12.8 µM; with SK-OV-3 ovarian, > 71.4 µM; with NCI-H522 lung, 15.7 µM. Moreover, the TGI in the experiment with LOX IMVI melanoma stood at 41.9 µM; in the experiment with COLO 205 colon, 26.1 µM.
As to `C=CCNC(=S)N1CC(C)C(=O)Nc2cc(Cl)ccc21` (stereo not given), the TGI with MOLT-4 leukemia, in the experiment on SNB-75 CNS, in the experiment on K-562 leukemia, in the experiment with OVCAR-5 ovarian, in the experiment on SK-OV-3 ovarian and in the experiment on NCI-H522 lung was > 100 µM each time. Also, the TGI in the experiment with COLO 205 colon was > 100 µM.
In the case of `COc1cc(C2c3cc4c(cc3[C@@H](Nc3cccc(CO)c3)C3COC(=O)[C@H]23)OCO4)cc(OC)c1O` (stereo not given in full), the total growth inhibition concentration (TGI) was 0.185 µM in the experiment on MOLT-4 leukemia; > 24.7 µM with SNB-75 CNS; 5.87 µM in the experiment with K-562 leukemia; 11.5 µM with OVCAR-5 ovarian; 9.04 µM in the experiment with SK-OV-3 ovarian; 3.52 µM with NCI-H522 lung. Moreover, the TGI in the experiment on LOX IMVI melanoma was found to be 3.74 µM; with COLO 205 colon, 3.72 µM.
Consider `S=C1NC2=C(COc3ccccc32)C(c2ccc(Cl)cc2)N1` (stereo not given), for which the total growth inhibition concentration (TGI) worked out at 38.7 µM in the experiment with MOLT-4 leukemia; 38 µM with SNB-75 CNS; 38.1 µM in the experiment with K-562 leukemia; 30.7 µM in the experiment on OVCAR-5 ovarian; 35.8 µM in the experiment on SK-OV-3 ovarian; 30.3 µM with LOX IMVI melanoma. Besides, the figures for the total growth inhibition concentration (TGI) in the experiment with MDA-MB-435, in the experiment on COLO 205 colon and in the experiment on MDA-N were 58.2 µM, 36.9 µM and 29.9 µM, respectively.
With `NC(N)=NS(=O)(=O)c1ccc(N/N=C2/CCOC2=O)cc1`, the TGI in the experiment on MOLT-4 leukemia was > 100 µM; in the experiment with SNB-75 CNS it was 58.7 µM; in the experiment with K-562 leukemia, > 100 µM; in the experiment with OVCAR-5 ovarian it was > 100 µM; in the experiment with SK-OV-3 ovarian, > 100 µM; in the experiment on LOX IMVI melanoma, > 100 µM. Besides, the concentration for total growth inhibition (TGI) in the experiment with MDA-MB-435, in the experiment on COLO 205 colon and with MDA-N was > 100 µM throughout.
Consider `COc1cc(C(=O)O[C@H](C(=O)NCCCNC(=O)[C@@H](OC(=O)c2cc(OC)cc3c(C)cccc23)[C@]2(C)CO2)[C@]2(C)CO2)c2cccc(C)c2c1`, for which the GI50 was < 0.01 µM with MOLT-4 leukemia; < 0.0359 µM in the experiment with K-562 leukemia; 0.168 µM in the experiment on OVCAR-5 ovarian; 0.501 µM in the experiment with SK-OV-3 ovarian; < 0.01 µM with NCI-H522 lung; < 0.01 µM in the experiment with LOX IMVI melanoma. In addition, the concentration for 50% growth inhibition (GI50) in the experiment with COLO 205 colon is 0.0593 µM. Further, the concentration for total growth inhibition (TGI) was < 0.01 µM in the experiment on MOLT-4 leukemia; 0.381 µM in the experiment with SNB-75 CNS; 0.923 µM with K-562 leukemia; 1.45 µM with OVCAR-5 ovarian; 1.98 µM in the experiment with SK-OV-3 ovarian; < 0.01 µM in the experiment with NCI-H522 lung. The figures for the concentration for total growth inhibition (TGI) in the experiment with LOX IMVI melanoma, with MDA-MB-435 and in the experiment on COLO 205 colon were < 0.01 µM, 0.503 µM and 0.511 µM, respectively.
For `COc1ccc(C2=NN(c3ccccc3)C[N+](c3ccc(C)cc3)=N2)cc1`, the total growth inhibition concentration (TGI) is 88.5 µM in the experiment with MOLT-4 leukemia; 53.9 µM in the experiment on K-562 leukemia; 79.8 µM with OVCAR-5 ovarian; 26.5 µM in the experiment on NCI-H522 lung; > 100 µM with LOX IMVI melanoma; > 100 µM in the experiment with COLO 205 colon.
On to `COc1ccc(/C=C2/CSCC3=C2NC(=S)NC3c2ccc(OC)c(OC)c2OC)c(OC)c1OC` (stereo not given), for which the total growth inhibition concentration (TGI) in the experiment on MOLT-4 leukemia is > 100 µM; in the experiment with SNB-75 CNS it was > 100 µM; in the experiment with K-562 leukemia, > 100 µM; in the experiment with OVCAR-5 ovarian it was 57.5 µM; in the experiment with SK-OV-3 ovarian, > 100 µM; with NCI-H522 lung, 97.5 µM. In addition, the results for the TGI with LOX IMVI melanoma, in the experiment with MDA-MB-435 and in the experiment with COLO 205 colon were 58.3 µM, 61.4 µM and 76.9 µM, respectively.
Turning to `O=c1[nH]nc(NCc2ccccc2)c2nnn(Cc3ccccc3)c12`, the TGI with MOLT-4 leukemia, in the experiment on K-562 leukemia, in the experiment with OVCAR-5 ovarian, in the experiment on LOX IMVI melanoma, in the experiment on MDA-MB-435 and with COLO 205 colon was > 100 µM each time. Further, the concentration for total growth inhibition (TGI) in the experiment with MDA-N is > 100 µM.
Take `Cc1[nH]c(=O)[nH]c(=O)c1/C=C/C(=O)O` (tested in a mixture with another compound): the TGI with MOLT-4 leukemia, in the experiment with SNB-75 CNS, in the experiment on K-562 leukemia, in the experiment on OVCAR-5 ovarian, with SK-OV-3 ovarian and in the experiment with NCI-H522 lung was > 625 µM in each case. Besides, the concentration for total growth inhibition (TGI) in the experiment with LOX IMVI melanoma and in the experiment on COLO 205 colon was > 625 µM throughout.
As for `COc1cc2c3cc1Oc1c(O)c(OC)cc4c1C(Cc1ccc(O)c(c1)Oc1ccc(cc1)CC3N(C)CC2)N(C)CC4` (stereo not given), the TGI in the experiment with MOLT-4 leukemia was 30.8 µM; in the experiment on SNB-75 CNS it was 35.3 µM; with K-562 leukemia, 10.3 µM; with OVCAR-5 ovarian, 38.4 µM; in the experiment with SK-OV-3 ovarian, 40.1 µM; in the experiment with NCI-H522 lung, 29.7 µM. Moreover, the concentration for total growth inhibition (TGI) came out at 10.7 µM with LOX IMVI melanoma and 43.4 µM in the experiment with COLO 205 colon.
Turning to `Cc1cccc(Br)[n+]1[O-]`, the TGI with MOLT-4 leukemia, in the experiment with SNB-75 CNS, in the experiment on K-562 leukemia, in the experiment on OVCAR-5 ovarian, in the experiment on SK-OV-3 ovarian and with NCI-H522 lung was > 100 µM in each case. Also, the total growth inhibition concentration (TGI) in the experiment with LOX IMVI melanoma, with MDA-MB-435 and with COLO 205 colon was > 100 µM in each case.
As for `COc1ccc2c3c(Nc4cccc(/C(C)=N\O)c4)[nH]c4ccccc4c-3c(N=O)c2c1`, the GI50 with MOLT-4 leukemia is 7 µM; with K-562 leukemia, 31.6 µM; with OVCAR-5 ovarian it was 26.5 µM; with NCI-H522 lung, 46.2 µM; in the experiment with LOX IMVI melanoma it was 29.1 µM; with MDA-MB-435 it was 30.9 µM. Further, the GI50 in the experiment with COLO 205 colon was 21.3 µM. Also, the TGI is 62.2 µM in the experiment with MOLT-4 leukemia; > 100 µM in the experiment on K-562 leukemia; 96.9 µM in the experiment with OVCAR-5 ovarian; > 100 µM in the experiment on NCI-H522 lung; 67.7 µM with LOX IMVI melanoma; > 100 µM with MDA-MB-435. Further, the concentration for total growth inhibition (TGI) in the experiment with COLO 205 colon worked out at 57.1 µM.
For the compound `O=C1C=CC2OC(c3ccccc3)C(O)C2O1` (stereo not given), the TGI in the experiment with MOLT-4 leukemia worked out at 4.41 µM; in the experiment with SNB-75 CNS it was 31 µM; in the experiment on K-562 leukemia, 59.7 µM; in the experiment on OVCAR-5 ovarian, 21.5 µM; in the experiment on SK-OV-3 ovarian it was 39.5 µM; in the experiment on NCI-H522 lung it was 4 µM. Moreover, the total growth inhibition concentration (TGI) in the experiment with LOX IMVI melanoma came out at 8.18 µM; in the experiment with COLO 205 colon it was 11 µM.
In the case of `COc1ccc(/C(C)=N/NC(=O)c2ccncc2)c(OC)c1`, the TGI in the experiment with MOLT-4 leukemia, in the experiment on SNB-75 CNS, in the experiment with K-562 leukemia, with SK-OV-3 ovarian, in the experiment on LOX IMVI melanoma and in the experiment on COLO 205 colon was > 10 µM throughout. In the experiment on MDA-N, the TGI is > 10 µM.
As to `COc1cc(C2C3=C(COC3=O)Oc3cc4c(cc32)OCO4)ccc1O` (stereo not given), the TGI with MOLT-4 leukemia is > 100 µM; with SNB-75 CNS, 0.652 µM; in the experiment on K-562 leukemia it was > 100 µM; in the experiment on OVCAR-5 ovarian it was > 100 µM; in the experiment with SK-OV-3 ovarian, 0.932 µM; in the experiment on NCI-H522 lung, 1.31 µM. The TGI with LOX IMVI melanoma is > 100 µM; in the experiment with COLO 205 colon, 0.576 µM; in the experiment with MDA-N, 0.346 µM.
In the case of `N#CCc1c(-c2ccccc2)n(S(=O)(=O)c2ccccc2)c2ccccc12`, the TGI in the experiment on MOLT-4 leukemia was > 100 µM; in the experiment with SNB-75 CNS, 62 µM; with K-562 leukemia, > 100 µM; in the experiment with OVCAR-5 ovarian, > 100 µM; with COLO 205 colon it was > 100 µM.
Consider `COc1cc(OC)cc(-c2ccc(-c3ccc(C(=N)N)cn3)o2)c1`, for which the GI50 with MOLT-4 leukemia is 1.74 µM; with SNB-75 CNS, 1.48 µM; in the experiment with K-562 leukemia it was 1.32 µM; in the experiment with OVCAR-5 ovarian it was 1.74 µM; in the experiment on SK-OV-3 ovarian, 1.91 µM; with MDA-MB-435, 1.55 µM. In the experiment with COLO 205 colon, the GI50 is 1.62 µM. The TGI came out at 3.59 µM with MOLT-4 leukemia; 2.85 µM in the experiment on SNB-75 CNS; 2.98 µM with K-562 leukemia; 3.2 µM in the experiment with OVCAR-5 ovarian; 3.34 µM in the experiment with SK-OV-3 ovarian; 2.99 µM with MDA-MB-435. Besides, the TGI with COLO 205 colon was 3.27 µM.
As to `CCC(C)C(N)C(=O)NC(CC(N)=O)C(=O)NC(CC(C)C)C(=O)NC(CCCCN)C(=O)NC(C)C(=O)NC(CC(C)C)C(=O)NC(C)C(=O)NC(C)C(=O)NC(CC(C)C)C(=O)NC(C)C(=O)NC(CCCCN)C(=O)NC(CCCCN)C(=O)NC(C(=O)NC(CC(C)C)C(N)=O)C(C)CC` (stereo not given), the total growth inhibition concentration (TGI) in the experiment with MOLT-4 leukemia was found to be 38.5 µM; with SNB-75 CNS, 14 µM; in the experiment with K-562 leukemia, 36.3 µM; in the experiment on OVCAR-5 ovarian, 28 µM; in the experiment with SK-OV-3 ovarian, 33.7 µM; with NCI-H522 lung, 33.3 µM. Besides, the values for the concentration for total growth inhibition (TGI) with LOX IMVI melanoma and in the experiment on COLO 205 colon were 35.3 µM and 32.1 µM, respectively.
`Clc1cccc(-c2sc(-c3ccsc3)cc2Cc2ccsc2)c1`: the TGI in the experiment with MOLT-4 leukemia, in the experiment on SNB-75 CNS, in the experiment on K-562 leukemia, with SK-OV-3 ovarian, in the experiment with LOX IMVI melanoma and with MDA-MB-435 was > 10 µM each time. Besides, the concentration for total growth inhibition (TGI) in the experiment on COLO 205 colon and in the experiment on MDA-N was > 10 µM throughout.
As to `CCOC(=O)CC(c1ccccc1)C(C)(C(=O)OCC)C(=O)OCC` (stereo not given), the TGI in the experiment on MOLT-4 leukemia, with SNB-75 CNS, in the experiment on K-562 leukemia, in the experiment with OVCAR-5 ovarian, with SK-OV-3 ovarian and in the experiment with NCI-H522 lung was > 100 µM throughout. Moreover, the TGI in the experiment with LOX IMVI melanoma and in the experiment on COLO 205 colon was > 100 µM throughout.

The term TGI denotes the concentration at which net growth stops. A low value points to more potent growth arrest. Usually GI50 stands for the concentration giving 50% growth inhibition.
